These molecules were tested on Eschericia coli strain ATCC25922 (assay: standard microdilution assay to determine minimum inhibitory concentrations (MICs)). Conditions: Escherichia coli, ATCC25922, Eschericia coli strain ATCC25922, standard microdilution assay; read-out: E. coli ATCC25922 MIC.
Type: cell-based
Summary of the method: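 Broth microdilution per CLSI protocols, typically 100 µL final volume, against E. coli ATCC25922. MIC values scored as +/− against a cutoff of 16 micrograms/ml.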
In the case of `NCCCCN1CCCC(c2c[nH]c(NC(=O)Nc3ccccc3OC(F)(F)F)nc2=O)CC1` (centres unmarked) [Compound 524], the MIC is reported as greater than 16 µg/mL.
Molecule `N=C(N)NCCCCN1CCCC(c2c[nH]c(NC(=O)Nc3ccccc3OC(F)(F)F)nc2=O)CC1` (centres unmarked) [Compound 525] has an MIC greater than 16 µg/mL.
`COc1nc(NC(=O)NCCc2nc3ccccc3o2)ncc1-c1ccc(CNCCCN)c(F)c1` [Compound 526] was tested, and the MIC was greater than 16 µg/mL.
`NCCCN1CC2(CCN(c3c[nH]c(NC(=O)Nc4ccccc4OC(F)(F)F)nc3=O)C2)C1` [Compound 527] was tested, and the MIC was greater than 16 µg/mL.
For `NCCCCN1CCN(c2c[nH]c(Nc3nc4ccccc4[nH]3)nc2=O)CC1` [Compound 530], the MIC was greater than 16 µg/mL.
With `N=C(N)NCCCCN1CCN(c2c[nH]c(Nc3nc4ccccc4[nH]3)nc2=O)CC1` [Compound 531] the MIC was greater than 16 µg/mL.
In the case of `N=C(N)NCCCCN1CCN(c2c[nH]c(NC(=O)Nc3ccccc3OC(F)(F)F)nc2=O)CC1` [Compound 534], the MIC is reported as greater than 16 µg/mL.
`NCCCCN1CCC(c2c[nH]c(NC(=O)Nc3cc(F)c(F)cc3F)nc2=O)CC1` [Compound 535] gave an MIC greater than 16 µg/mL.
`NCCCCN1CCC(c2c[nH]c(NC(=O)Nc3cccc(Cl)c3F)nc2=O)CC1` [Compound 536] was tested, and the MIC was greater than 16 µg/mL.
`NCCCCN1CCC(c2c[nH]c(NC(=O)Nc3ccccc3OC(F)(F)F)nc2=O)CC1` [Compound 537] gave an MIC greater than 16 µg/mL.
`NCCCCCN1CCC(c2c[nH]c(NC(=O)Nc3cc(F)c(F)cc3F)nc2=O)CC1` [Compound 538] showed an MIC greater than 16 µg/mL.
`NCCCNCc1ccc(-c2c[nH]c(NC(=O)NCCCc3ccccc3OC(F)(F)F)nc2=O)cc1F` [Compound 539] gave an MIC of less than 16 µg/mL.
`N=C(N)NCCCNCc1ccc(-c2c[nH]c(NC(=O)NCCCc3ccccc3OC(F)(F)F)nc2=O)cc1F` [Compound 540] showed an MIC greater than 16 µg/mL.
In the case of `NCCCCCN1CCN(c2c[nH]c(Nc3nc4cc(F)c(F)cc4[nH]3)nc2=O)CC1` [Compound 541], the MIC is reported as greater than 16 µg/mL.
Work on `N=C(N)NCCCCCN1CCC(c2c[nH]c(NC(=O)Nc3cc(F)c(F)cc3F)nc2=O)CC1` [Compound 545] yielded an MIC greater than 16 µg/mL.
With `N=C(N)NCCCCN1CCC(c2c[nH]c(NC(=O)Nc3cc(F)c(F)cc3F)nc2=O)CC1` [Compound 546] the MIC was greater than 16 µg/mL.
Molecule `N=C(N)NCCCCN1CCC(c2c[nH]c(NC(=O)Nc3cccc(Cl)c3F)nc2=O)CC1` [Compound 547] has an MIC greater than 16 µg/mL.
Work on `N=C(N)NCCCCN1CCC(c2c[nH]c(NC(=O)Nc3ccccc3OC(F)(F)F)nc2=O)CC1` [Compound 548] yielded an MIC greater than 16 µg/mL.
For `NCCCCCN1CCC(c2c[nH]c(NC(=O)Nc3cccc(Cl)c3F)nc2=O)CC1` [Compound 549], the MIC was greater than 16 µg/mL.
`NCCCCCN1CCC(c2c[nH]c(NC(=O)Nc3ccccc3OC(F)(F)F)nc2=O)CC1` [Compound 550] was tested, and the MIC was greater than 16 µg/mL.
`NCCCNCc1ccc(-c2c[nH]c(NC(=O)Nc3cc(F)c(F)cc3F)nc2=O)cn1` [Compound 551] showed an MIC greater than 16 µg/mL.
For `NCCCNCc1ccc(-c2c[nH]c(NC(=O)Nc3cccc(Cl)c3F)nc2=O)cn1` [Compound 552], the MIC was greater than 16 µg/mL.
Work on `NCCCNCc1ccc(-c2c[nH]c(NC(=O)Nc3ccccc3OC(F)(F)F)nc2=O)cn1` [Compound 553] yielded an MIC greater than 16 µg/mL.
For `NCCCNCc1ccc(-c2c[nH]c(NC(=O)NCCc3nc4cc(F)c(F)cc4[nH]3)nc2=O)cc1F` [Compound 554], the MIC was greater than 16 µg/mL.
`NCCCNCc1ccc(-c2c[nH]c(NC(=O)NCCc3nc4ccccc4[nH]3)nc2=O)cc1F` [Compound 555] showed an MIC greater than 16 µg/mL.
For `NCCCNCc1ccc(-c2c[nH]c(NC(=O)NCc3nc4ccccc4[nH]3)nc2=O)cc1F` [Compound 556], the MIC was greater than 16 µg/mL.
For `N=C(Nc1ccccc1)Nc1nc(=O)c(-c2ccc(CNCCCN)c(F)c2)c[nH]1` [Compound 573], the MIC was greater than 16 µg/mL.
In the case of `NCCCNCc1ccc(-c2c[nH]c(NC(=O)NCCCc3cc(F)c(F)cc3F)nc2=O)cc1F` [Compound 574], the MIC is reported as greater than 16 µg/mL.
With `N=C(N)NCCCNCc1ccc(-c2c[nH]c(NC(=O)NCCCc3cc(F)c(F)cc3F)nc2=O)cc1F` [Compound 582] the MIC was greater than 16 µg/mL.
In the case of `N=C(N)NCCCCCN1CCC(c2c[nH]c(NC(=O)Nc3cccc(Cl)c3F)nc2=O)CC1` [Compound 583], the MIC is reported as greater than 16 µg/mL.
`N=C(N)NCCCCCN1CCC(c2c[nH]c(NC(=O)Nc3ccccc3OC(F)(F)F)nc2=O)CC1` [Compound 584] gave an MIC greater than 16 µg/mL.
In the case of `N=C(N)NCCCNCc1ccc(-c2c[nH]c(NC(=O)Nc3cc(F)c(F)cc3F)nc2=O)cn1` [Compound 585], the MIC is reported as greater than 16 µg/mL.
`NCCCNCc1ccc(-c2c[nH]c(Nc3nc4ccccc4o3)nc2=O)cc1F` [Compound 588] showed an MIC of less than 16 µg/mL.
In the case of `COc1nc(Nc2nc3ccccc3o2)ncc1-c1ccc(CNCCCN)c(F)c1` [Compound 589], the MIC is reported as greater than 16 µg/mL.
`N=C(N)NCCCNCc1ccc(-c2c[nH]c(NC(=O)Nc3cccc(Cl)c3F)nc2=O)cn1` [Compound 593] showed an MIC of less than 16 µg/mL.
With `N=C(N)NCCCNCc1ccc(-c2c[nH]c(NC(=O)Nc3ccccc3OC(F)(F)F)nc2=O)cn1` [Compound 594] the MIC was less than 16 µg/mL.
`NCCCCNC1CCN(c2c[nH]c(NC(=O)Nc3ccccc3OC(F)(F)F)nc2=O)CC1` [Compound 599] gave an MIC greater than 16 µg/mL.
`N=C(N)NCCCCNC1CCN(c2c[nH]c(NC(=O)Nc3ccccc3OC(F)(F)F)nc2=O)CC1` [Compound 605] was tested, and the MIC was greater than 16 µg/mL.
`NCCCNCc1ccc(-c2c[nH]c(NCCc3nc4cc(F)c(F)cc4[nH]3)nc2=O)cc1F` [Compound 607] gave an MIC greater than 16 µg/mL.
`NCCCNCc1ccc(-c2c[nH]c(NCCc3nc4cc(F)c(F)cc4o3)nc2=O)cc1F` [Compound 608] gave an MIC greater than 16 µg/mL.
`NCCCCNC1CCN(c2c[nH]c(NC(=O)Nc3cc(F)c(F)cc3F)nc2=O)CC1` [Compound 619] was tested, and the MIC was greater than 16 µg/mL.
With `N=C(N)NCCCNCc1ccc(-c2c[nH]c(NC(=O)NC3CCN(Cc4cc(F)c(F)cc4F)CC3)nc2=O)cc1` [Compound 652] the MIC was greater than 16 µg/mL.
`N=C(N)NCCCN(CCC1CC1)Cc1ccc(-c2c[nH]c(NC(=O)Nc3cc(F)c(F)cc3F)nc2=O)cc1` [Compound 680] gave an MIC greater than 16 µg/mL.
`NCCCNCc1ccc(-c2c[nH]c(NC(=O)NC3CN(Cc4cc(F)c(F)cc4F)C3)nc2=O)cc1` [Compound 710] gave an MIC greater than 16 µg/mL.
For `N=C(N)NCCCNCc1ccc(-c2c[nH]c(NC(=O)NC3CN(Cc4cc(F)c(F)cc4F)C3)nc2=O)cc1` [Compound 712], the MIC was greater than 16 µg/mL.
For `N=C(N)NCCCNCc1ccc(-c2c[nH]c(NC(=O)NC3CCN(Cc4cc(F)c(F)cc4F)C3)nc2=O)cc1` (centres unmarked) [Compound 735], the MIC was greater than 16 µg/mL.
Work on `N=C(N)NCCCNCc1ccc(-c2c[nH]c(NC(=O)NCCOc3cc(F)c(F)cc3F)nc2=O)cc1` [Compound 739] yielded an MIC greater than 16 µg/mL.
`N=C(N)NCCCNCc1ccc(-c2c[nH]c(NC(=O)NC3CN(C(=O)Nc4cc(F)c(F)cc4F)C3)nc2=O)cc1` [Compound 747] gave an MIC of less than 16 µg/mL.
For `N=C(N)NCCCNCc1ccc(-c2c[nH]c(NC(=O)NC3CN(S(=O)(=O)c4cc(F)cc(F)c4F)C3)nc2=O)cc1` [Compound 779], the MIC was greater than 16 µg/mL.
`N=C(N)NCCCNCc1ccc(-c2c[nH]c(NC(=O)NC3CN(C(=O)c4cc(F)cc(F)c4F)C3)nc2=O)cc1` [Compound 780] was tested, and the MIC was greater than 16 µg/mL.
Work on `CN(C)CCCOc1ccccc1NC(=O)Nc1nc(=O)c(-c2ccc(CNCCCN)cc2)c[nH]1` [Compound 1291] yielded an MIC greater than 16 µg/mL.
In the case of `NCCCNCc1ccc(-c2c[nH]c(NC(=O)Nc3ccccc3OCCCO)nc2=O)cc1` [Compound 1294], the MIC is reported as greater than 16 µg/mL.
`NCCCNCc1ccc(-c2c[nH]c(NC(=O)Nc3ccccc3OCCNC(N)=O)nc2=O)cc1` [Compound 1295] was tested, and the MIC was greater than 16 µg/mL.
`NCCCNCc1ccc(-c2c[nH]c(NC(=O)Nc3ccccc3OCCCN)nc2=O)cc1` [Compound 1296] showed an MIC greater than 16 µg/mL.
With `NCCCNCc1ccc(-c2c[nH]c(NC(=O)Nc3ccccc3OCCCC(=O)O)nc2=O)cc1` [Compound 1297] the MIC was greater than 16 µg/mL.
For `CCN[C@@H]1CCCCC1NC(=O)Nc1nc(=O)c(-c2ccc(CN)cc2)c[nH]1` (some centres unmarked) [Compound 1302], the MIC was greater than 16 µg/mL.
With `NCCCN1CCC[C@H](NC(=O)Nc2nc(=O)c(-c3ccc(CN)cc3)c[nH]2)C1` [Compound 1303] the MIC was greater than 16 µg/mL.
`NCCCN1CCC[C@@H](NC(=O)Nc2nc(=O)c(-c3ccc(CN)cc3)c[nH]2)C1` [Compound 1304] showed an MIC greater than 16 µg/mL.
`NCc1ccc(-n2ccc(NC(=O)NC3CCCNC3)nc2=O)cc1` (centres unmarked) [Compound 1305] showed an MIC greater than 16 µg/mL.
`NCc1ccc(-c2c[nH]c(NC(=O)NC3CCCN(CCO)C3)nc2=O)cc1` (centres unmarked) [Compound 1317] was tested, and the MIC was greater than 16 µg/mL.
`NCCCN[C@@H]1CCCCC1NC(=O)Nc1nc(=O)c(-c2ccc(CN)cc2)c[nH]1` (some centres unmarked) [Compound 1338] showed an MIC greater than 16 µg/mL.
Work on `NCc1ccc(-c2c[nH]c(NC(=O)NC3CCCC[C@H]3NCC(F)(F)F)nc2=O)cc1` (some centres unmarked) [Compound 1357] yielded an MIC greater than 16 µg/mL.
